Assay results from patent publication US8071548B2, “Method of reducing injury to mammalian cells” (Nono, Inc., priority 2002, dated 2011).

Experiments:
[1] = tested on: mitochondrial membrane potential; conditions: 10 μM; 10 min
Method: Cultures were preincubated at 37° C. with 10 nM TMRM for 30 min. […] TMRM was maintained in the solution throughout the experiment. TMRM fluorescence was imaged on a Nikon Eclipse TE-2300 microscope using 20× objective (Nikon), a 510-560 nm bandpass excitation and 590 nm emission filter. Images were acquired using a Hamamatsu ORCA-ER digital camera and Simple PCI software (Nikon). Fluorescence from 10-30 cells was averaged and background subtracted for each image.

[2] = tested on: reactive oxygen species; experiment: ROS production (DHR fluorescence); type: cell-based, mouse
Method: The production of reactive oxygen species (ROS) was measured with DHR. In brief, DHR is oxidized to a fluorescent rhodamine-123 (Royall and Ischiropoulos, 1993), and the consequent rise in fluorescence may be used as an indicator of ROS production.
ROS were measured as previously described (Tymianski et al., 1998; Aarts et al., 2003). In brief, cultures were pre-loaded for 30 min with 5 μM DHR and subjected to the experimental insult. DHR fluorescence was measured in a multiwell plate fluorescence scanner (Cytofluor II, PerSeptive Biosytems, Framingham, Mass., USA; 485 nm excitation, 530 emission). DHR fluorescence was normalized to baseline using the formula at (Ft−Fo)/F0; Where Ft=DHR fluorescence at time t, Fo=DHR fluorescence at time zero. DHR fluorescence images were also acquired using a microscope (465-495 nm excitation and 515-555 nm emission) as described above for TMRM.

[3] = tested on: traumatic brain injury; experiment: Lateral fluid percussion injury model of TBI; type: in vivo, Sprague-Dawley rats; conditions: analyzed 24 h after injury
Method: Adult male Sprague-Dawley rats weighing approximately 350 g were ordered from Charles River and anesthesia was induced using a gaseous mixture of 1:2 oxygen:nitrous oxide with 2% halothane. The halothane level was reduced to 1% during surgical manipulations and weights were recorded prior to preparatory surgery. The preparatory surgery for these experiments included the cannulation of the left femoral vein and a 5 mm diameter craniotomy. The venous cannula is sealed and tucked inside the animal whereupon the wound is sutured. The center of the craniotomy lies about 2.5 mm to the right of the sagittal suture, between the bregma and lambda. A modified Leur-loc is attached to the perimeter of the craniotomy with superglue (FIG. 28).
Dental acrylic (GC America Inc, Alsip, Ill.) is applied around the modified Leur-loc to seal it into place. A small piece of gelfoam is placed into the opening and the skin is sutured over the entire setup. The animal is then returned to its cage. The following day, the animal is re-anesthetized, weighed, and its wound is re-opened. The gelfoam is removed and the animal is attached to the fluid percussion device via the modified Leur-loc. At this time, the animal is given a ˜20 ms saline injection at approximately 2.4 atmospheres (350 mV on the oscilloscope) using the fluid percussion injury device (Custom Design & Fabrication, Richmond, Va.) (FIG. 29).
On occasion, the animal ceases spontaneous breathing following the injury and 1-2 chest compressions are required for resuscitation. The modified Leur-loc along with the dental acrylic is removed en bloc immediately following the injury. The animal is placed on 100% oxygen while its wound is cleaned and resealed with Vetbond tissue adhesive (3M Worldwide, Maplewood, Minn.). The rat's body temperature during the recovery time is maintained at 37° C. with a homeothermic warming blanket (Harvard Bioscience Inc, Holliston, Mass.). The amount of time necessary for the righting reflex to return is recorded and the animal is placed back into its cage. At 3 h post-injury, the animal is re-anesthetized and weighed again. The wound overlying the femoral cannula is opened and the cannula is cleaned out using heparinized saline. […] The cannula is sealed, tucked again into the animal, and the wound is re-sutured. At 24 h post-injury, the animal is re-anesthetized and weighed again. The rat is transcardially perfused using heparinized saline to clean out the cardiovascular system, followed by a 4% formalin fixative solution. The rat is decapitated and left in the fixative solution overnight. The brain is extracted the following day and processed. The volume of damaged brain (FIG. 26, right graph) is assessed according to the same methods as described in Aarts et al., 2002, for assessing stroke volumes. […]

[4] = tested on: cultured cortical neurons
[5] = tested on: cortical neuronal cultures; experiment: DNA fragmentation assays (TUNEL, DNA gel electrophoresis); type: cell-based, mouse
Source text: DNA fragmentation was examined using the terminal deoxynucleotidyl transferase-mediated end nick labeling (TUNEL) method (Gavrieli et al., 1992; Didenko and Hornsby, 1996; Didenko et al., 1998) and by DNA agarose gel electrophoresis (Hill et al., 2000).
TUNEL Assay: Nuclear DNA strand breaks were detected by enzymatically labeling free 3′-OH termini with modified nucleotides provided in the Apoptag kit (Intergen) using the manufacturer's instructions. Visualization of TUNEL-stained nuclei was achieved using an anti-digoxigenin antibody conjugated to a fluorescein or peroxidase reporter molecule (ApopTag Peroxidase Kits S7110 and S7100, respectively, Intergen). In fluorescence experiments, nuclei were counterstained using 5 ng/ml Hoechst 33258 (1:5000, Transduction Labs), and visualized using 465-495 nm excitation and 515-555 nm emission for fluorescein and 340 nm excitation and 510-40 nm emission for Hoechst. The number of TUNEL positive cells was expressed as a fraction of the total cell number in the field. In each culture, 4-8 random fields were quantified. Approximately 100-200 cells were counted per culture, and at least 3 experiments were performed for each set of counts.
DNA Gel Electrophoresis: DNA laddering was evaluated as described elsewhere (Hill et al., 2000). In brief, all tissue was collected from each culture well and pelleted by centrifugation (1000 rpm; 1 min). The cells were digested for 2 h at 56° C. in buffer containing (in mM) 10 Tris pH 8.0, 2 EDTA pH8, 400 NaCl, 0.5% SDS, 1 mg/ml proteinase K. Digest solution was subjected to phenol/chloroform extraction and total DNA was precipitated from the aqueous layer with an equal volume of 100% ethanol. The DNA pellet was dried, dissolved in 50 μl ddH20 and kept overnight at 4° C. 10 μg DNA was prepared on a 2% agarose gel. Gels were stained with ethidium bromide and photographed.

[6] = tested on: caspase 3; experiment: Active caspase 3 immunofluorescence; type: cell-based, mouse; conditions: positive control
Method: Cultures were fixed with warm 4% paraformaldehyde and 4% sucrose in PBS for 20 min, permeabilized with 0.1% Triton X-100 for 10 min at 4° C., and blocked with 10% goat serum in PBS for 1 h at RT. Immunofluorescence was visualized with an inverted Nikon microscope using a 40× oil immersion lens. FITC, rhodamine and Hoechst were visualized using 465-495 excitation and 515-555 nm emission, 510-560 nm excitation and 590 nm emission, and 340 nm excitation and 510 nm emission, respectively. Active caspase 3 was labelled by incubating the cultures with a purified rabbit monoclonal anti-active caspase 3 antibody (1:300; BD PharMingen) and a fluorescein-conjugated goat anti-mouse IgG secondary antibody (1:500; Transduction Labs). Nitrotyrosine was labelled by incubating the cultures with a rabbit polyclonal α-nitrotyrosine primary antibody (1:300; Upstate) and a rhodamine-conjugated goat anti-rabbit IgG secondary antibody (1:500; Transduction Labs). AIF was labelled by incubating the cultures with an AIF antibody (1:200; Santa Cruz, (Zhang et al., 2002)) and a rhodamine-conjugated goat anti-mouse IgG secondary antibody (1:500; Transduction Labs). In some experiments, nuclei were counter-stained with Hoechst 33258 (1:5,000, Transduction Labs).

[7] = tested on: cortical neuronal cultures; experiment: Sublethal stretch injury with or without NMDA, cell death in cortical cultures; type: cell-based; conditions: 200 μM
Method: […]. In brief, cerebral cortices from 10 to 12 embryos were incubated for 10 min in 0.05% trypsin-EDTA, dissociated by trituration, and plated on flexible membranes coated with poly-L-ornithine in 6 well plates (Flexcell International Corporation, Hillsborough, N.C.) at a density of 3.25×10^6 cells per well. Plating medium consisted of DMEM supplemented with 10% heat-inactivated horse serum (Gibco) and (in mM) 2 glutamine, 25 glucose, and 26 bicarbonate. The cultures were maintained at 37° C. in a humidified 5% CO2 atmosphere. After 3 days in vitro, growth of non-neuronal cells was halted by a 48 h exposure to 10 μM FDU-solution (5 μM uridine, 5 μM (+)-5-fluor-2′-deoxyuridine). This produces cultures in which >85% of the cells are neurons, based on immunohistochemical staining for glial fibrillary associated protein (exclusive to astrocytes), and for the NMDAR1 subunit (not shown). The cultures were used for experiments after 12-14 days in vitro.
The cultures, grown on silastic membranes as above, were placed in the Flexercell® FX-3000™ Strain Unit (Flexcell Int., Inc.), a computer-driven instrument that uses a vacuum pulse to deform the culture substrate. In all experiments, the cortical cultures were stretched to 130% of their original length for 1 s, inducing a sublethal injury as recently characterized by us (Arundine et al., 2003). The stretched neurons maintained cell membrane integrity, viability, and electrophysiological function.
Cell death was determined by serial quantitative measurements of propidium iodide (PI) fluorescence using a multiwell plate fluorescence scanner (Cytofluor II, PerSeptive Biosytems, Framingham, Mass., USA) as described previously (Sattler et al., 1997; Sattler et al., 1998). In brief, the culture medium in each tissue culture well was replaced with control solution containing 50 μg/ml PI, and a baseline fluorescence reading was taken. Sequential readings were then taken at appropriate intervals over the 20 h observation period. The fraction of dead cells in each culture at a given time was calculated as: Fraction dead=(Ft−Fo)/FNMDA Where Ft=PI fluorescence at time t, F0=initial PI fluorescence at time zero and FNMDA=background subtracted PI fluorescence of identical cultures from the same dissection and plating, 20-24 h after a 60 min exposure to 1 mM NMDA at 37° C. Based on manual observations at the time of validation of this technique, this NMDA exposure routinely produced near complete neuronal death in each culture but had no effect on surrounding glia (also see (Bruno et al., 1994; David et al., 1996; Sattler et al., 1997)). Adding Triton X-100 (0.1%) to cultures treated in this manner produced an additional 10-15% increase in PI fluorescence due to permeabilization of non-neuronal cell membranes, consistent with a 10-15% glial component in the cultures.
All experiments were performed at 37° C. Unless otherwise indicated, all solutions contained nimodipine (2 μM) and CNQX (10 μM) to restrict the actions of applied NMDA to NMDARs by preventing the secondary activation of other pathways (Sattler et al., 1998). In general, the cultures were washed ×2 with control solution and immediately stretched to 130% of their original length for 1 s. After the stretch, they were washed ×1 with control solution alone or challenged with an additional treatment (e.g., NMDA) and placed at 37° C. for 1 h. They were then washed ×1 with control solution and then with control solution containing 50 μg/ml PI to obtain a baseline reading. In pilot studies, baseline readings obtained at this stage were similar to those obtained by staining the cells with PI prior to stretch. As the stretch causes splashing of the bath solution, staining with PI after stretch reduced biohazard potential and artifacts associated with PI outside the culture well. Unstretched controls were manipulated identically to stretched cultures.

[8] = tested on: transient middle cerebral artery occlusion; experiment: Transient MCAO, dose study of infarct size; type: in vivo, Sprague-Dawley rats; conditions: 6 mg/kg 1 h before the stroke
[9] = tested on: cortical neuronal cultures; experiment: Staurosporine-induced cell death in cortical cultures; type: cell-based, mouse; conditions: 200 μM for 48 h, staurosporine 1 μM
[10] = tested on: NMDARs; experiment: Whole cell patch-clamp recordings of NMDA currents in cultured neurons; type: cell-based, mouse; conditions: intracellular dialysis of 1 mM peptide, 300 μM NMDA
[11] = 20 h post-insult, 200 μM MnTBAP or 100 μM L-NAME

N#CC(C#N)=NNc1ccc(OC(F)(F)F)cc1 [FCCP, reference compound]
mitochondrial depolarization (loss of TMRM fluorescence) [1]: profound mitochondrial depolarization
DHR fluorescence ([2]; mitochondrial uncoupler): abolished all DHR fluorescence

Tat-KLSSIETDV
total volume of injured brain ([3]; 3 hours after TBI): significantly reduced
fraction of dead cells in cerebral cortex and hippocampus ipsilateral to the injury ([3]; via femoral cannula 3 hours after TBI): markedly reduced fraction of dead cells

N[C@@H](CSN=O)C(=O)O [S-nitrosocysteine]
NO donor toxicity [4]: highly toxic

CN[C@@H]1C[C@H]2O[C@@](C)([C@@H]1OC)n1c3ccccc3c3c4c(c5c6ccccc6n2c5c31)C(=O)NC4 [staurosporine]
DNA laddering by gel electrophoresis ([5]; 1 μM for 48 h): DNA ladders suggestive of intenucleosomal DNA fragmentation
TUNEL staining ([5]; 1 μM for 48 h): TUNEL staining was observed
active caspase 3 staining [6]: stained for active caspase 3

O=C(O)c1ccc(-c2c3nc(c(-c4ccc(C(=O)O)cc4)c4ccc([n-]4)c(-c4ccc(C(=O)O)cc4)c4nc(c(-c5ccc(C(=O)O)cc5)c5ccc2[n-]5)C=C4)C=C3)cc1.[Mn+3] [MnTBAP, manganese(III) tetrakis(4-benzoic acid) porphyrin]
cell death in stretched cells treated with 30 μM NMDA ([7]; 30 min preincubation, 20 h): completely eliminated cell death
SNP toxicity ([4]; SNP 300 μM, 200 μM MnTBAP pretreatment): reduced SNP toxicity to baseline
DHR fluorescence (ROS production) ([2]; 200 μM pretreatment): reduced DHR fluorescence in all culture conditions
DNA laddering after stretch followed by NMDA [5, 11]: virtually abolished
TUNEL staining after stretch followed by NMDA [5, 11]: virtually abolished

CC(C(O)c1ccc(O)cc1)N1CCC(Cc2ccccc2)CC1 (centres unmarked) [Ro25-6981, reference compound]
infarct size versus control dose [8]: significant reduction in infarct size

z-val-ala-asp-fluoromethylketone [z-VAD-FMK]
attenuation of staurosporine-induced death [9]: significantly reduced
attenuation of staurosporine-induced death ([9]; listed as zvadFMK): 47%
cytotoxicity in stretched cultures with 30 μM NMDA [7]: no significant reduction in cytotoxicity
toxicity to unstretched cultures or stretch alone [7]: not toxic
DNA fragmentation of neurons exposed to stretch+NMDA ([5]; DNA gel electrophoresis): did not reduce DNA fragmentation

CSKDTMEKSESL
peak NMDA current amplitudes [10]: 2540±281 pA
